Data from US20160038505A1, “METHODS AND COMPOSITIONS FOR TREATING IMPULSE CONTROL DISORDER, ANXIETY-RELATED DISORDERS, VIOLENCE AND/OR ANGER, OR REGULATING FOOD INTAKE” (priority 2014, published 2016).
Entries after “also recorded” stand apart in the source; their conditions may differ.

Experiments:
[1] = tested on: opioid-dependent participants; assay: Time to resumption of opioid substitution treatment and withdrawal scales (COWS, SOWS, OOWS); type: in vivo, human
Experimental: Three cohorts of nine (9) subjects (6 administered noribogaine and 3 administered placebo in each cohort) were evaluated for tolerability, pharmacokinetics, and efficacy. Cohort 1 received a single dose of 60 mg noribogaine or placebo. Cohort 2 received a single dose of 120 mg noribogaine or placebo. Cohort 3 received a single dose of 180 mg noribogaine or placebo.
Patients were evaluated based on the Clinical Opiate Withdrawal Scale (COWS), Subjective Opiate Withdrawal Scale (SOWS), and Objective Opiate Withdrawal Scale (OOWS) scoring systems over the period of time between administration of noribogaine (or placebo) until resumption of OST. These scales are outlined in Guidelines for the Psychosocially Assisted Pharmacological Treatment of Opioid Dependence, World Health Organization, Geneva (2009), Annex 10, which is incorporated herein by reference in its entirety. The scales measure the intensity of withdrawal symptoms, based on clinical, subjective, and objective indicia.

[2] = tested on: opioid-dependent participants; assay: QT interval evaluation in opioid-dependent patients; type: in vivo, human; details: 60, 120, 180 mg, first 24 hours; correlated with serum concentration
Experimental: Patients' QT intervals were evaluated at regular time points throughout the study.

[3] = tested on: adult wild type short-fin zebrafish; assay: Zebrafish novel tank test (NTT), anxiety-related endpoints; type: in vivo
Experimental: A total of 60 adult wild type short-fin zebrafish (˜50:50 male:female ratio) were used in this study. Fish were housed in groups of 20-30 fish per 40-L tank. Tanks were filled with filtered water and maintained at 25° C. Illumination (1000-1100 1×) was provided by ceiling-mounted fluorescent lights on a 12-h cycle (on: 6.00 h, off: 18.00 h) according to the standards of zebrafish care. All fish used in this study were experimentally naïve and fed Tetramin Tropical Flakes (Tetra USA, Blacksburg, Va.) twice a day. Following behavioral testing, the animals were euthanized in 500 mg/L Tricaine (Sigma-Aldrich, St. Louis, Mo.) buffered to pH=7.0. Animal experimentation in this study fully adhered to national and institutional guidelines and regulations.
As such, a 1 mg/L dose of noribogaine (DMX1 or Cpd) was chosen. A standard 20-min pre-treatment time was chosen based on experience with a wide range of other neuroactive compounds and the results of pilot studies. This exposure time was also sufficient for provoking physiological (e.g., cortisol and c-fos) responses of zebrafish to multiple drugs. Noribogaine exposure in this study was performed by submerging individual zebrafish in a 1-L plastic beaker for 20 min prior to the testing. The solution was regularly changed after each exposure, to ensure that each fish is exposed to a consistent concentration of noribogaine. Control fish were exposed to noribogaine-free water for the same treatment time, as described above.
Apparatus: Behavioral testing was performed between 11:00 and 15:00 h using tanks with water adjusted to the holding room temperature (25° C.). The study used the novel tank test (NTT) protocol. NTT represents one of the most commonly used neurophenotyping tests for adult zebrafish. To avoid the test battery or handling effects, each assay was performed once, on a separate individual naïve fish each time. Prior to testing, fish were pre-exposed individually in a 1-L plastic beaker for 20 min to either noribogaine-treated or noribogaine-free water. During testing, zebrafish behavior was recorded by two trained observers blind to the treatments, who manually scored different behavioral endpoints (inter- and intra-rater reliability in all experiments >0.85) with subsequent automated analysis of generated traces by Ethovision XT8.5 software (Noldus IT, Wageningen, Netherlands). The NTT, used to assess zebrafish anxiety and locomotion, was a 1.5-L trapezoidal tank (15 cm height×28 cm top×23 cm bottom×7 cm width; Aquatic Habitats, Apopka, Fla.) maximally filled with water and divided into two equal virtual horizontal portions by a line marking the outside walls. Fish were individually pre-exposed to water (water control) or noribogaine (1, 5 and 10 mg/L) for 20 min and tested in the standard 5-min NTT.
Behavioral analyses: Zebrafish behavior was recorded by trained observers, scoring the latency to reach the top half of the tank(s), time spent in top(s), number of transitions to top, as well as the number and duration(s) of freezing bouts. Freezing was defined as a total absence of movement, except for the gills and eyes, for >2 s. Trials were also recorded to a computer using a USB webcam (2.0-megapixel, Gigaware, UK) and subsequently analyzed by Ethovision XT8.5, assessing distance traveled (m), velocity (m/s), and meandering endpoints. During manual observation, videos were recorded in MPEG1 format with the maximum sample rate 30 fps for each trial by auto-focusing 2.0 MP USB webcams, placed 25 cm in front of the tanks, and attached to laptop computers. Recorded videos were analyzed with Ethovision XT8.5 software. All environments were calibrated for each arena and the calibration axes were placed to designate the origin (0,0) at the center of each tank. The track data for each fish was exported as raw data into separate spreadsheets. […]

[4] = tested on: healthy, drug-free male volunteers; assay: Safety and tolerability of noribogaine in healthy humans; type: in vivo, human
Experimental: Safety and tolerability of noribogaine were tested in the group of volunteers from Example 9. […] Safety evaluations included clinical monitoring, recording of adverse events (AEs), safety laboratory tests, vital signs, ECG telemetry from −2 h to 6 h after dosing, and 12-lead electrocardiograms (ECGs) up to 216 hours post-dosing.

[5] = tested on: healthy, drug-free male volunteers; assay: Pupillometry (pupillary miosis) in healthy volunteers; type: in vivo, human; details: 3-60 mg single oral dose, vs placebo p>0.9
Experimental: Pulse oximetry and capnography data were collected continuously using a GE Carescape B650 monitoring system from 2 hours prior to dosing and until six hours after dosing, and thereafter at 12, 24, 48 and 72 hours post-dosing. […] Pupillary miosis was assessed by pupillometry.

[6] = Human pharmacokinetic study, single oral tablet, fasting healthy volunteers (serum); type: in vivo; details: fasting, serum
Experimental: In double blind studies, fasting healthy volunteers (6 per cohort) were treated once orally with a tablet of noribogaine HCl. In escalating cohorts, the volunteers received 3 mg, 10 mg, 30 mg or 60 mg noribogaine.

CC[C@H]1CC2C[C@H]3c4[nH]c5ccc(O)cc5c4CCN(C2)C13 [noribogaine]
withdrawal symptoms (COWS, OOWS, SOWS), first six hours following dosing ([1]; 120 mg): generally experienced fewer withdrawal symptoms than the other patients
average time to resumption of opioids (OST) ([1]; single 120 mg dose): greater than 20 hours
QT interval prolongation (ΔQTcl) [2]: dose-dependent increase in QT interval prolongation
anxiolytic-like behavior ([3]; 1 mg/L): robust anxiolytic-like behavior without any overt hyperactivity/hypoactivity or circling behaviors
efficacy, pilot experiments ([3]; 1 mg/L): sub-maximal efficacy
distance moved and velocity ([3]; 1-, 5- and 10-mg/L): moderate, but non-significant, decrease
freezing bouts frequency and duration of freezing ([3]; 1-, 5- and 10-mg/L): no difference in freezing bouts frequency
movement mobility (HF hi-mobility events) ([3]; 1-, 5- and 10-mg/L): dose-related disappearance of HF hi-mobility events
transitions to upper half of the tank ([3]; 1-, 5- and 10-mg/L vs control): none of the treatment groups showed a statistically significant change
overall turning rates and patterns (meander total) ([3]; 5- and 10-mg/L): statistically significant decrease in overall turning rates and patterns (meander)
swimming motor activity, pilot experiments ([3]; 5- and 10-mg/L): caused reduction in selected swimming motor activity levels
number of top transitions ([3]; 5 and 10 mg/L (control 10)): ~7
EC50 ([3]; Danio rerio, 20 min, water immersion 20 min, read-out: half-efficacy on indices of anxiety levels (time in top, latency in top)): < 1 µg/mL
time spent in top portion of the tank ([3]; each of 1-, 5- and 10-mg/L): statistically significant increase in the duration of time spent in the defined top portion of the tank
latency to the upper half of the tank ([3]; each of 1-, 5- and 10-mg/L, 20 min immersion, 5-min NTT): statistically significant decrease in latency to the upper half of the tank
turning/rotation rate ([3]; significant at the 10 mg/L dose): decrease in turning/rotation rate
adverse events, Mild ([4]; 3 mg): Dizziness; also recorded: Epistaxis; also recorded: Headache; also recorded: Back pain
adverse events, Moderate ([4]; 3 mg): Headache
number of adverse events reported ([4]; 3 mg dose group): five adverse events were reported by two subjects
adverse events, Mild ([4]; 10 mg): Headache
number of adverse events reported ([4]; 10 mg dose group, single subject): one adverse event
adverse events, Mild ([4]; 30 mg): Headache
number of adverse events reported ([4]; 30 mg dose group, single subject): one adverse event
oximetry, capnography, respiratory rate ([4]; 3-60 mg): no changes in oximetry or capnography, or changes in respiratory rate
vital signs and safety laboratory tests ([4]; 3-60 mg): no changes in vital signs or safety laboratory tests of note
QTcF values ([4]; 3-60 mg, at any time): ≤ 500 ms
single increase in QTcF ([4]; one subject dosed with 10 mg, 24 hours post-dosing): > 60 ms
pupillary constriction (pupil diameter) [5]: no evidence of pupillary constriction
mean AUC/24 hr ([6]; single dose of 3 mg): 3.1 ng/mL
time after administration at which mean Cmax was observed ([6]; single dose of 3 mg): 1.9 h
mean AUC/24 hr ([6]; single dose of 10 mg): 10.6 ng/mL
time after administration at which mean Cmax was observed ([6]; single dose of 10 mg): 2.9 h
mean AUC/24 ([6]; single dose of 30 mg): 29.2 ng/mL
time after administration at which mean Cmax was observed ([6]; single dose of 30 mg): 1.75 h
mean AUC/24 ([6]; single dose of 60 mg): 61 ng/mL
time after administration at which mean Cmax was observed ([6]; single dose of 60 mg): 1.75 h
